Test results from ChEMBL document CHEMBL3045001, “Synthesis and evaluation of analgesic, anti-inflammatory, and anticancer activities of new pyrazole-3(5)-carboxylic acid derivatives” (Med Chem Res, 2013).

Assays:
[1] = tested on: Raji; assay: Anticancer activity against Homo sapiens (human) Raji cells assessed as cell viability at 50 uM after 24 hr by MTT assay (reference value: 100 +/-5.02%); format: functional; settings: read-out: Activity
[2] = tested on: MCF7; assay: Anticancer activity against Homo sapiens (human) MCF7 cells assessed as cell viability at 50 uM after 48 hr by MTT assay (100 +/-5.08%); format: functional; settings: MCF7, 48 h, read-out: Activity
[3] = tested on: Mus musculus; assay: Anti-inflammatory activity in carrageenan-induced Mus musculus Swiss albino (mouse) paw edema model assessed as paw swelling at 100 mg/kg, sc administered 30 min prior to carrageenan injection measured after 180 min (reference value: 51.0 +/-3.0 x10'-2 mm); format: functional; settings: route subcutaneous
[4] = tested on: Mus musculus; assay: Anti-inflammatory activity in carrageenan-induced Mus musculus Swiss albino (mouse) paw edema model assessed as paw swelling at 100 mg/kg, sc administered 30 min prior to carrageenan injection measured after 270 min (rvb = 75.0 +/-3.0 x10'-2 mm); format: functional; settings: route subcutaneous
[5] = tested on: MDA-MB-231; assay: Anticancer activity against Homo sapiens (human) estrogen-independent MDA-MB-231 cells assessed as cell viability at 50 uM after 24 hr by MTT assay (reference value: 100 +/-7.08%); format: functional; settings: MDA-MB-231, 24 h, read-out: Activity
[6] = tested on: HeLa; assay: Anticancer activity against Homo sapiens (human) HeLa cells assessed as cell viability at 50 uM after 48 hr by MTT assay (reference value: 100 +/-3.8%); format: functional; settings: read-out: Activity
[7] = tested on: MCF7; assay: Anticancer activity against Homo sapiens (human) MCF7 cells assessed as cell viability at 50 uM after 24 hr by MTT assay (reference value: 100 +/-2.74%); format: functional; settings: MCF7, 24 h, read-out: Activity
[8] = tested on: HL-60; assay: Anticancer activity against Homo sapiens (human) HL60 cells assessed as cell viability at 50 uM after 24 hr by MTT assay (reference value: 100 +/-3.55%); format: functional; settings: HL-60, 24 h, read-out: Activity
[9] = tested on: MDA-MB-231; assay: Anticancer activity against Homo sapiens (human) estrogen-independent MDA-MB-231 cells assessed as cell viability at 50 uM after 48 hr by MTT assay (reference value: 100 +/-3.71%); format: functional; settings: MDA-MB-231, 48 h, read-out: Activity
[10] = tested on: Mus musculus; assay: Anti-inflammatory activity in carrageenan-induced Mus musculus Swiss albino (mouse) paw edema model assessed as inhibition of paw edema at 100 mg/kg, sc administered 30 min prior to carrageenan injection measured after 270 min; format: functional; settings: route subcutaneous
[11] = tested on: Mus musculus; assay: Anti-inflammatory activity in carrageenan-induced Mus musculus Swiss albino (mouse) paw edema model assessed as inhibition of paw edema at 100 mg/kg, sc administered 30 min prior to carrageenan injection measured after 180 min; format: functional; settings: route subcutaneous
[12] = tested on: HeLa; assay: Anticancer activity against Homo sapiens (human) HeLa cells assessed as cell viability at 50 uM after 24 hr by MTT assay (reference value: 100 +/-4.13%); format: functional; settings: read-out: Activity
[13] = tested on: Mus musculus; assay: Anti-inflammatory activity in carrageenan-induced Mus musculus Swiss albino (mouse) paw edema model assessed as inhibition of paw edema at 100 mg/kg, sc administered 30 min prior to carrageenan injection measured after 360 min; format: functional; settings: route subcutaneous
[14] = species: Mus musculus; assay: Acute toxicity against Mus musculus Swiss albino (mouse) assessed as mortality after 48 hr; format: organism-based; settings: in vivo
[15] = tested on: HL-60; assay: Anticancer activity against Homo sapiens (human) HL60 cells assessed as cell viability at 50 uM after 48 hr by MTT assay (reference value: 100 +/-8.41%); format: functional; settings: HL-60, 48 h, read-out: Activity
[16] = tested on: Raji; assay: Anticancer activity against Homo sapiens (human) Raji cells assessed as cell viability at 50 uM after 48 hr by MTT assay (reference value: 100 +/-4.26%); format: functional; settings: read-out: Activity
[17] = tested on: Mus musculus; assay: Analgesic activity in Mus musculus Swiss albino (mouse) assessed as inhibition of p-benzoquinone-induced abdominal writhing at 100 mg/kg, sc administered 30 min prior to PBQ injection measured after 5 min for 15 min; format: functional, Abdomen; design: scale not given: the % may be the effect or the level left; settings: route subcutaneous
[18] = tested on: Mus musculus; assay: Anti-inflammatory activity in carrageenan-induced Mus musculus Swiss albino (mouse) paw edema model assessed as paw swelling at 100 mg/kg, sc administered 30 min prior to carrageenan injection measured after 90 min (reference value: 38.0 +/-2.0 x10'-2 mm); format: functional; settings: route subcutaneous
[19] = tested on: Mus musculus; assay: Anti-inflammatory activity in carrageenan-induced Mus musculus Swiss albino (mouse) paw edema model assessed as inhibition of paw edema at 100 mg/kg, sc administered 30 min prior to carrageenan injection measured after 90 min; format: functional; settings: route subcutaneous
[20] = species: Mus musculus; assay: Acute toxicity against Mus musculus Swiss albino (mouse) assessed as morbidity after 48 hr; format: organism-based; settings: in vivo
[21] = tested on: Mus musculus; assay: Anti-inflammatory activity in carrageenan-induced Mus musculus Swiss albino (mouse) paw edema model assessed as paw swelling at 100 mg/kg, sc administered 30 min prior to carrageenan injection measured after 360 min (reference value: 77.0 +/-3.0 x10'-2 mm); format: functional; settings: route subcutaneous
[22] = tested on: HeLa; assay: Anticancer activity against Homo sapiens (human) HeLa cells assessed as inhibition of cell viability by MTT assay; format: functional, cell-based
[23] = tested on: HL-60; assay: Anticancer activity against Homo sapiens (human) HL60 cells assessed as inhibition of cell viability by MTT assay; format: functional, cell-based
[24] = tested on: Mus musculus; assay: Anti-inflammatory activity in carrageenan-induced Mus musculus Swiss albino (mouse) paw edema model assessed as paw swelling at 10 mg/kg, sc administered 30 min prior to carrageenan injection measured after 90 min (reference value: 38.0 +/-2.0 x10'-2 mm); format: functional; settings: route subcutaneous
[25] = tested on: Mus musculus; assay: Anti-inflammatory activity in carrageenan-induced Mus musculus Swiss albino (mouse) paw edema model assessed as paw swelling at 10 mg/kg, sc administered 30 min prior to carrageenan injection measured after 360 min (reference value: 77.0 +/-3.0 x10'-2 mm); format: functional; settings: route subcutaneous
[26] = tested on: Mus musculus; assay: Anti-inflammatory activity in carrageenan-induced Mus musculus Swiss albino (mouse) paw edema model assessed as inhibition of paw edema at 10 mg/kg, sc administered 30 min prior to carrageenan injection measured after 180 min; format: functional; settings: route subcutaneous
[27] = tested on: Mus musculus; assay: Anti-inflammatory activity in carrageenan-induced Mus musculus Swiss albino (mouse) paw edema model assessed as inhibition of paw edema at 10 mg/kg, sc administered 30 min prior to carrageenan injection measured after 360 min; format: functional; settings: route subcutaneous
[28] = tested on: Mus musculus; assay: Anti-inflammatory activity in carrageenan-induced Mus musculus Swiss albino (mouse) paw edema model assessed as inhibition of paw edema at 10 mg/kg, sc administered 30 min prior to carrageenan injection measured after 270 min; format: functional; settings: route subcutaneous
[29] = tested on: Mus musculus; assay: Anti-inflammatory activity in carrageenan-induced Mus musculus Swiss albino (mouse) paw edema model assessed as paw swelling at 10 mg/kg, sc administered 30 min prior to carrageenan injection measured after 180 min (reference value: 51.0 +/-3.0 x10'-2 mm); format: functional; settings: route subcutaneous
[30] = tested on: Mus musculus; assay: Anti-inflammatory activity in carrageenan-induced Mus musculus Swiss albino (mouse) paw edema model assessed as inhibition of paw edema at 10 mg/kg, sc administered 30 min prior to carrageenan injection measured after 90 min; format: functional; settings: route subcutaneous
[31] = tested on: Mus musculus; assay: Anti-inflammatory activity in carrageenan-induced Mus musculus Swiss albino (mouse) paw edema model assessed as paw swelling at 10 mg/kg, sc administered 30 min prior to carrageenan injection measured after 270 min (reference value: 75.0 +/-3.0 x10'-2 mm); format: functional; settings: route subcutaneous

| SMILES | viability at 50 µM [1] | viability at 50 µM [2] | Activity [3] | Activity [4] | viability at 50 µM [5] | viability at 50 µM [6] | viability at 50 µM [7] | viability at 50 µM [8] | viability at 50 µM [9] | inhibition in vivo at 100 mg/kg [10] | inhibition in vivo at 100 mg/kg [11] | viability at 50 µM [12] | inhibition in vivo at 100 mg/kg [13] | Activity [14] | viability at 50 µM [15] | viability at 50 µM [16] | Activity [17] | Activity [18] | inhibition in vivo at 100 mg/kg [19] | Activity [20] | also measured |
| --- | --- | --- | --- | --- | --- | --- | --- | --- | --- | --- | --- | --- | --- | --- | --- | --- | --- | --- | --- | --- | --- |
| Cc1ccc(-c2cc(C(=O)Oc3ccc(-n4ccnc4)cc3)n(Cc3ccccc3)n2)cc1 | 96.5% | 52.4% | 43 ×10⁻² mm | 61.6 ×10⁻² mm | 33.1% | 33.9% | 67.6% | 108% | 24.4% | 19.2% | 15.4% | 36.7% | 18.8% | Non-toxic | 121% | 106% | 14.9% | 35 ×10⁻² mm | 6.6% | Non-toxic | Activity [21]: 62 ×10⁻² mm; IC50 [22]: 30.4 µM |
| Cc1ccc(-c2cc(C(=O)N3CCN(Cc4ccc(C(C)C)cc4)CC3)nn2Cc2ccccc2)cc1 | 44.4% | 56.7% | 28 ×10⁻² mm | 31 ×10⁻² mm | 67.2% | 34.5% | 51.4% | 11.9% | 41.1% | 58.9% | 46.3% | 52.5% | 63.4% | Non-toxic | 15.5% | 29.6% | 59.2% | 34 ×10⁻² mm | 8.9% | Non-toxic | IC50 [23]: 24.4 µM; Activity [21]: 28 ×10⁻² mm; IC50 [22]: 30.5 µM |
| Cc1ccc(-c2cc(C(=O)Oc3ccc(C(C)(C)C)cc3)nn2Cc2ccccc2)cc1 | 111% | 92.4% | 37 ×10⁻² mm | 34 ×10⁻² mm | 93.7% | 62.1% | 90.9% | 134% | 70.5% | 54% | 28.5% | 118% | 58.7% | Non-toxic | 69.7% | 95.3% | 73.4% | 28 ×10⁻² mm | 26% | Non-toxic | Activity [21]: 32 ×10⁻² mm |
| CCOC(=O)C1CCN(C(=O)c2cc(-c3ccc(C)cc3)nn2Cc2ccccc2)CC1 | 77% | 88.2% | 34 ×10⁻² mm | 34 ×10⁻² mm | 96.5% | 49.9% | 54.2% | 102% | 64% | 54.4% | 33.3% | 53.5% | 57.6% | Non-toxic | 91.7% | 97.3% | 77% | 28 ×10⁻² mm | 26.7% | Non-toxic | Activity [21]: 33 ×10⁻² mm |
| COc1ccc2c(c1)c(CC(=O)O)c(C)n2C(=O)c1ccc(Cl)cc1 [INDOMETHACIN] |  |  |  |  |  |  |  |  |  |  |  |  |  |  |  |  |  |  |  |  | Activity [24]: 32 ×10⁻² mm; Activity [25]: 42 ×10⁻² mm; inhibition in vivo at 10 mg/kg [26]: 31.7%; inhibition in vivo at 10 mg/kg [27]: 45.7%; inhibition in vivo at 10 mg/kg [28]: 45.6%; Activity [29]: 35 ×10⁻² mm; inhibition in vivo at 10 mg/kg [30]: 15.5%; Activity [31]: 41 ×10⁻² mm |
